The results in this text go back to patent US12048307B2, “Compositions, methods and uses for cleaning, disinfecting and/or sterilizing” (Collidion, Inc., priority 2017, dated 2024).

This assay deals with Bacillus subtilis (ATCC #19659) spores. Nature of the assay: B. subtilis spore viability assay, 15 minutes treatment, with or without serum. Particulars: spore suspension about 1×10^6 cfu/mL, 48 hours incubation at 37° C. on TSA, >500 = too many colonies to count. Type of assay: cell-based. The method, then:
To prepare stock cultures of pathogenic spores, 10 mL nutrient broth was inoculated using a stock culture of Bacillus subtilis (ATCC #19659) and incubated on an orbital shaker for 24±2 hours at approximately 150 rpm at 36±1° C. This culture was used to inoculate Tryptic Soy Agar (TSA) plates. Each plate was inoculated with 500 μL of broth culture and the inoculum spread with a sterile L spreader. In addition, the purity of this culture was verified by streaking on TSA plates and incubating plates at 36±1° C. for 24±2 hours. Each plate was wrapped with parafilm. inverted and incubated for 12-14 days at 36±1° C. Following incubation, spores were harvested by adding 10 mL cold sterile water to each plate, the growth removed from the plates using a spreader, and the resulting suspensions were transferred into 15 mL sterile conical tubes. The suspensions were centrifuged at 5,000 rpm (4,500×g) for approximately 10 minutes at room temperature. After removal of the supernatant, the spore pellet was washed by re-suspending pellet with 10 mL cold sterile water and centrifuged at 5,000 rpm (4,500×g) for approximately 10 minutes. This washing step was repeated two more times. The spore pellet was re-suspended with 10 mL sterile water and the spore suspension was stored at 2-5° C. until needed. The spore suspension was stained using stain and the spores examined under the microscope to assess quality of the spores. A minimum of five fields were examined and the ratio of the spores to vegetative cells (or sporangia) was determined. Percentage of spores versus vegetative cells were about 95% spores. Spore titer was determined by preparing serial dilutions, plating the dilutions on TSA plates, incubating plates for 24±2 hours at 36±1° C., and counting the number of colonies formed to determine the titer. The test culture was standardized by using phosphate buffer to achieve a final test culture microbe population of 1.0×10^6 cfu/mL.
Assay samples were set up with or without serum, such as, e.g., Tryptic Soy Broth (TSB) or Bovine Serum (BS). The purpose of the serum was to better simulate the organic load of blood and other tissue which tends to deactivate an antimicrobial agent. In general, assays were conducted by first incubating a pathogen spore sample with a composition disclosed herein for a specified treatment time period, optionally with serum, and then culturing the sample on growth medium to assess spore viability.
In one series of experiments, assays where the samples were treated with serum were set up to contain 100 μL of pathogen spore suspension (containing about 1×10^6 cfu/mL), 50 μL of serum, and 850 μL of a composition described in Example 1. […] The inoculated plates were then incubated at 37° C. for 48 hours and the number of bacterial colonies, if any, counted. […]

On to `O=CCCCC=O` [0.5% Glutaraldehyde, Glutaraldehyde], for which the “Count (number of bacterial colonies), 5% Serum” value was over 500 and the “Count (number of bacterial colonies), No Serum” value is over 500.
Take hypochlorous acid [97 ppm HOCl]: the “Count (number of bacterial colonies), 5% Serum” value is over 500 and the “Count (number of bacterial colonies), No Serum” value is 0.
